For this test, the target named is ATR kinase (Homo sapiens (Human), UniProt Q13535). Kind of test: ATR kinase activity assay (time-resolved fluorescence, p53 substrate phosphorylation). It is filed as biochemical. Here is the method: Biotinylated protein derived from p53 (Eurofins, art. No.: 14-952) was phosphorylated with ATR kinase. The amount of phosphorylated protein was determined by time-resolved fluorescence in this assay. The amount of phosphorylated protein was detected by anti-p53-phospho-(serine 15)-K-specific antibody (Cisbio, art. No.: 61GSTDLA) and d2 labeled anti-GST antibody (Cisbio, art. No. 61P08KAE). Before the experiment, the following working solution was prepared as required: 1× reaction buffer (20 mM HEPES PH8.0, 1% glycerol, 0.01% Brij-35), dilution buffer (20 mM HEPES PH8.0, 1% glycerol, 0.01% Brij-35, 5 mM DTT and 1% BSA), stop solution (20 mM HEPES PH8.0, 1% glycerol, 0.01% Brij-35, 250 mM EDTA), detection buffer (50 mM HEPES pH7.0, 150 mM NaCl, 267 mM KF, 0.1% sodium cholate, 0.01% Tween-20, 0.0125% sodium azide). The reagents used above are purchased from Sigma or Invitrogen, except for those where the manufacturer was mentioned.
Sequence of ATR kinase (Q13535 whole entry): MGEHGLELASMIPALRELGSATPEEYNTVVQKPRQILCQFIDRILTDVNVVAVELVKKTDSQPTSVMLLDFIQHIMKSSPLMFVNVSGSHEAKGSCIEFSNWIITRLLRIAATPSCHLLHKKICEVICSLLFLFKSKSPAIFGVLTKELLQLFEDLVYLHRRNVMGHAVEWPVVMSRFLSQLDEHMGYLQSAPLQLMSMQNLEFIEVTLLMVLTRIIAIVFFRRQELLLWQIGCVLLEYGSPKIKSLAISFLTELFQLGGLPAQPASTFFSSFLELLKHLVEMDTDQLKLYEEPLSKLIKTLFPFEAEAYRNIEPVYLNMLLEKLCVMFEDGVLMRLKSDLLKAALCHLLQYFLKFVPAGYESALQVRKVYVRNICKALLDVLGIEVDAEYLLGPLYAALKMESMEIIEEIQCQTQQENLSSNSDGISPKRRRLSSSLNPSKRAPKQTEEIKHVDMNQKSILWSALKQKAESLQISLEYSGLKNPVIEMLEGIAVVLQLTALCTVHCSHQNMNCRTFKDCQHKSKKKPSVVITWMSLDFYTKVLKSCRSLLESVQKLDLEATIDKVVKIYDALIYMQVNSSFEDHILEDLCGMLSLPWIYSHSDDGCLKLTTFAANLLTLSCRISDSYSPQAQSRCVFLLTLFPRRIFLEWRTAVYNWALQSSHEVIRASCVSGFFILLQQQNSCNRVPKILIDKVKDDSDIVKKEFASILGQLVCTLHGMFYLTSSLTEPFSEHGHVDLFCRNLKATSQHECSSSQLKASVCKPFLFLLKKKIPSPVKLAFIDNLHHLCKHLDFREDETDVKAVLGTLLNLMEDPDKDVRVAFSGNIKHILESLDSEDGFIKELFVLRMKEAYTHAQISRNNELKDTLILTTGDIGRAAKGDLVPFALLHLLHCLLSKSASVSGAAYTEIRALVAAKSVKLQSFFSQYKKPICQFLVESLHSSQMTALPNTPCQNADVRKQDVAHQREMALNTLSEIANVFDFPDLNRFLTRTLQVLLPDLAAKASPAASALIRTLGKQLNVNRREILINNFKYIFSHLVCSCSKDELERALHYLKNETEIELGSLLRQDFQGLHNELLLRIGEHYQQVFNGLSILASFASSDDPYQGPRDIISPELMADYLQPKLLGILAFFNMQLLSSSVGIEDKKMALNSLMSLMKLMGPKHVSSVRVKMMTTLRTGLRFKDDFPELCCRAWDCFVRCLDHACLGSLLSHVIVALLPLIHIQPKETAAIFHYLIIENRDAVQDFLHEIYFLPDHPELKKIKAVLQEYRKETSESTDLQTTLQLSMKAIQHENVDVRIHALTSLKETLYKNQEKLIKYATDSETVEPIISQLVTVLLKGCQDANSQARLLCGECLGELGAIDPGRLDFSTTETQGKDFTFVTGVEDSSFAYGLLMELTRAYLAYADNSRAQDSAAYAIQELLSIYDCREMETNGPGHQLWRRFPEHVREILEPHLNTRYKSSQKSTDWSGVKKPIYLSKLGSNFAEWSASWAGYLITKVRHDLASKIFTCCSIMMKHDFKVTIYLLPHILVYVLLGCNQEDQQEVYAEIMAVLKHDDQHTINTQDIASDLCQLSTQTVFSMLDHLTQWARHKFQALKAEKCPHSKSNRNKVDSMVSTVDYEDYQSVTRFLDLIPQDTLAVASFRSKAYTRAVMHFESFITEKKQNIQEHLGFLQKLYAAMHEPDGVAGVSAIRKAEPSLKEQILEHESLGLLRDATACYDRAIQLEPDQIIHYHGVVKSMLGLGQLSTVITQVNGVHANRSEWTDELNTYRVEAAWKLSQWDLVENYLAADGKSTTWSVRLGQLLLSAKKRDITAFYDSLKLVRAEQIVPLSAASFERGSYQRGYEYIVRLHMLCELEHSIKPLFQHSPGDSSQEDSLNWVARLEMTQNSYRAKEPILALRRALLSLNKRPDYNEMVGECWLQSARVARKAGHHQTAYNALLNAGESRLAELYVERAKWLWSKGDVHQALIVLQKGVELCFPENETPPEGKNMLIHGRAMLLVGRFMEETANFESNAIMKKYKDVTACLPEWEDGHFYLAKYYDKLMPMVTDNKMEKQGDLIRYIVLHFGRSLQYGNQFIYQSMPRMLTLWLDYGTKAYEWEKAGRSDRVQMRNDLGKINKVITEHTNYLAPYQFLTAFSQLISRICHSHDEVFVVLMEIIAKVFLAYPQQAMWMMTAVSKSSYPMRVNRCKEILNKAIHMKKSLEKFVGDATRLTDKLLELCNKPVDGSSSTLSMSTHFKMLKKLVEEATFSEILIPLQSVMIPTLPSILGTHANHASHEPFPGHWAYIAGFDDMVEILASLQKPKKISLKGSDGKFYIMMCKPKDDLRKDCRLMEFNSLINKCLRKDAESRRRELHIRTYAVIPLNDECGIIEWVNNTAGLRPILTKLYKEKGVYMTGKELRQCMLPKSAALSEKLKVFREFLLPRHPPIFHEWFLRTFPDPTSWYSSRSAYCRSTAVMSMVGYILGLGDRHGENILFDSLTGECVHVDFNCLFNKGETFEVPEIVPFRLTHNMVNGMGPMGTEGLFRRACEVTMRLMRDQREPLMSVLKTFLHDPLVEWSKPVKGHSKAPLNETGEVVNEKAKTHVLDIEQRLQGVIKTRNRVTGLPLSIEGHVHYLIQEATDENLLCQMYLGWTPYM
Sequence of ATR kinase (Q8WXE1 whole entry partner): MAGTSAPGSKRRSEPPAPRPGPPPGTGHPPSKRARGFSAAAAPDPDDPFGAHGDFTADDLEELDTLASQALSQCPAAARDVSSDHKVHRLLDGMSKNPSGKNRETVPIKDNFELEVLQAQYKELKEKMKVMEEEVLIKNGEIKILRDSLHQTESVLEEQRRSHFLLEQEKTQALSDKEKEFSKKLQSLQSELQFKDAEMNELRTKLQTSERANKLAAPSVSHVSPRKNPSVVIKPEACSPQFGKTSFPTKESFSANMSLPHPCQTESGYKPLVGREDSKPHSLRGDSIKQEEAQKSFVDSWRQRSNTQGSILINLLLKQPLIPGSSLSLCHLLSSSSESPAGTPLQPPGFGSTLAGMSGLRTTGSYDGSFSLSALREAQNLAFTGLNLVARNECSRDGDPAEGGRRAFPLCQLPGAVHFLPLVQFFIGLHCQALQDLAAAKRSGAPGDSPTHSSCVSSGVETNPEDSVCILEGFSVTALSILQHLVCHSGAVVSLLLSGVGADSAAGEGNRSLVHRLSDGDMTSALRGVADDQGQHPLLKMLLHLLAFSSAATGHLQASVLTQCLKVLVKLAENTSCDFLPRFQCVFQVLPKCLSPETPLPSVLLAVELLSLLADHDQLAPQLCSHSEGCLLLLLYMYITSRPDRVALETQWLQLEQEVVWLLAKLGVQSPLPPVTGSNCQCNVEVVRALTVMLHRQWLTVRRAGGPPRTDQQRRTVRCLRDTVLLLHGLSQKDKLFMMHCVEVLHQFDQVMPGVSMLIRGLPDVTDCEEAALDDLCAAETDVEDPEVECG
Operations are as follows:
4× gradient dilution of compound solutions was prepared with 1× reaction buffer to obtain 9 compound solutions of different concentrations, and 2.5 μL 4× gradient dilution of compound solutions was added to a 384-well analysis plate (784075, Greiner). 4× p53 substrate working solution (40 nM) was prepared with 1× reaction buffer, and 2.5 μL 4× p53 substrate working solution was added to the 384-well analysis plate. 4×ATR/ATRIP working solution (12.8 ng/μL) was prepared with dilution buffer, and 2.5 μL 4×pATR/ATRIP working solution was added to the 384-well analysis plate. 4×ATP working solution (2 mM) was prepared with deionized water, 2.5 μL 4×ATP working solution was added to the 384-well analysis plate, and incubated at room temperature in dark for 30 minutes. 5 μL stop solution was added to the 384 analysis plate. Finally, 5 μL test mixture (0.084 ng/μL Anti-phospho-p53(ser15)-K and 5 ng/μL Anti-GST-d2) was added to the 384 well analysis plate, incubated overnight at room temperature, and the fluorescence signal was detected with ENVISION (Perkinelmer) instrument (excitation wavelength: 320 nm, emission wavelength: 665 nm and 615 nm). The inhibition rate in each well was calculated by the fluorescence intensity value of each hole: ER (Emission Ratio)=(Fluorescence intensity at 665 nm/Fluorescence intensity at 615 nm); inhibition rate=(ER positive-ER test compound)/(ER positive-ER negative)×100%, the IC50 value of compounds were calculated by standard parameter fitting software (GraphPad Prism 6.0).
On to `Cc1nn(C2CCCN(C)C2)c(C)c1-c1cc(N2CCOC[C@H]2C)nc(-c2ccnc3[nH]ccc23)n1` (stereo partly shown) [Compound A32], for which inhibition was half-maximal at 27 nM (IC50).
The value for `Cc1nn(CC(C)(C)O)c(C)c1-c1cc(N2CCOC[C@H]2C)nc(-c2ccnc3[nH]ccc23)n1` [Compound A12] was 44 nM; that for `C[C@@H]1COCCN1c1cc(-c2ccnn2C2CCCCC2)nc(-c2ccnc3[nH]ccc23)n1` [Compound A17] was 2270 nM; that for `CCN(C)S(=O)(=O)c1ccc(C(C)C)c(-c2cc(N3CCOC[C@H]3C)nc(-c3ccnc4[nH]ccc34)n2)c1` [Compound A33] was 936 nM.
Consider `Cc1nn(CS(C)(=O)=O)c(C)c1-c1cc(N2CCOC[C@H]2C)nc(-c2ccnc3[nH]ccc23)n1` [Compound A41], for which the IC50 came to 11 nM.
The value for `Cc1nn(CCCO)c(C)c1-c1cc(N2CCOC[C@H]2C)nc(-c2ccnc3[nH]ccc23)n1` [Compound A11] was 15 nM.
The same measure for `Cc1nn(C(C)C)c(C)c1-c1cc(N2CCOC[C@H]2C)nc(-c2ccnc3[nH]ccc23)n1` [Compound A15]: 21 nM.
The same measure for `Cc1nn(CC2CCOC2)c(C)c1-c1cc(N2CCOC[C@H]2C)nc(-c2ccnc3[nH]ccc23)n1` (stereo partly shown) [Compound A28]: 25 nM; for `Cc1nn(CC2CNC2)c(C)c1-c1cc(N2CCOC[C@H]2C)nc(-c2ccnc3[nH]ccc23)n1` [Compound A18]: 47 nM; for `C[C@@H]1COCCN1c1cc(-c2cccc(S(C)(=O)=O)c2)nc(-c2ccnc3[nH]ccc23)n1` [Compound A4]: 179 nM.
Turning to `Cc1nn(CCN(C)C)c(C)c1-c1cc(N2CCOC[C@H]2C)nc(-c2ccnc3[nH]ccc23)n1` [Compound A21], the half-maximal inhibitory concentration (IC50) was 56 nM.
The same measure for `COc1ccc(S(=O)(=O)C(C)C)cc1-c1cc(N2CCOC[C@H]2C)nc(-c2ccnc3[nH]ccc23)n1` [Compound A13]: 66 nM.
The value for `CCNC(=O)Nc1ccc(-c2nc(-c3c(C)nn(C)c3C)cc(N3CCOC[C@H]3C)n2)cc1` [Compound A26] was 2170 nM; that for `Cc1nn(C)c(C)c1-c1nc(-c2ccnc(C(F)F)c2)cc(N2CCOC[C@H]2C)n1` [Compound B8] was above 10000 nM.
The value for `Cc1ccc(S(C)(=O)=O)cc1-c1cc(N2CCOC[C@H]2C)nc(-c2ccnc3[nH]ccc23)n1` [Compound A9] was 31 nM.
Molecule `Cc1c(-c2cc(N3CCOC[C@H]3C)nc(-c3ccnc4[nH]ccc34)n2)c(C(F)(F)F)nn1C` [Compound A8] displayed a half-inhibitory concentration (IC50) of 21 nM.
The value for `Cc1ccc(S(=O)(=O)N(C)C)cc1-c1cc(N2CCOC[C@H]2C)nc(-c2ccnc3[nH]ccc23)n1` [Compound A10] was 25 nM; that for `Cc1nn(CC2CNC2)c(C)c1-c1nc(-c2ccnc3[nH]ccc23)cc(N2CCOC[C@H]2C)n1` [Compound B7] was 340 nM.
The same measure for `Cc1nn(C)cc1-c1nc(-c2ccnc3[nH]ccc23)cc(N2CCOC[C@H]2C)n1` [Compound B5]: 1610 nM; for `CCN1CCN(S(=O)(=O)c2ccc(C)c(-c3cc(N4CCOC[C@H]4C)nc(-c4ccnc5[nH]ccc45)n3)c2)CC1` [Compound A35]: 63 nM; for `C[C@@H]1COCCN1c1cc(-c2ccc(S(C)(=O)=O)cc2)nc(-c2ccnc3[nH]ccc23)n1` [Compound A5]: above 10000 nM.
On to `Cc1c(-c2cc(N3CCOC[C@H]3C)nc(-c3ccc(C#N)c4[nH]ccc34)n2)c(C(F)(F)F)nn1C1CCNCC1` [Compound D5], for which the IC50 amounted to 108 nM.
The value for `Cc1c(-c2nc(-c3ccnc4[nH]ccc34)cc(N3CCOC[C@H]3C)n2)cnn1C` [Compound B4] was 1720 nM; that for `CCN(C)S(=O)(=O)c1ccc(OC)c(-c2cc(N3CCOC[C@H]3C)nc(-c3ccnc4[nH]ccc34)n2)c1` [Compound A30] was 110 nM.
The same measure for `Cc1nn(C(C)C)c(C)c1-c1nc(-c2ccnc3[nH]ccc23)cc(N2CCOC[C@H]2C)n1` [Compound B6]: 979 nM; for `Cc1ccc(S(=O)(=O)C2CCN(C)CC2)cc1-c1cc(N2CCOC[C@H]2C)nc(-c2ccnc3[nH]ccc23)n1` [Compound A36]: 91 nM.
As to `Cc1nn(CC2CCCN(C)C2)c(C)c1-c1cc(N2CCOC[C@H]2C)nc(-c2ccnc3[nH]ccc23)n1` (stereo partly shown) [Compound A38], the 50% inhibitory concentration (IC50) is 30 nM.
The same measure for `Cc1nn(CCCN(C)C)c(C)c1-c1cc(N2CCOC[C@H]2C)nc(-c2ccnc3[nH]ccc23)n1` [Compound A22]: 81 nM; for `CCN1CCC(n2nc(C)c(-c3cc(N4CCOC[C@H]4C)nc(-c4ccnc5[nH]ccc45)n3)c2C)C1` (stereo partly shown) [Compound A31]: 48 nM; for `CCNC(=O)Nc1nc2ccccc2n1-c1nc(-c2c(C)nn(C3CCNCC3)c2C(F)(F)F)cc(N2CCOC[C@@H]2C)n1` [Compound D37]: 71 nM.
The same measure for `CC(C)S(=O)(=O)c1ccc(C(F)(F)F)c(-c2cc(N3CCOC[C@H]3C)nc(-c3ccnc4[nH]ccc34)n2)c1` [Compound A29]: 631 nM; for `C[C@@H]1COCCN1c1cc(-c2ccnc3[nH]ccc23)nc(-c2cccc(S(C)(=O)=O)c2)n1` [Compound B2]: 4300 nM; for `Cc1nn(C2CCOCC2)c(C)c1-c1cc(N2CCOC[C@H]2C)nc(-c2ccnc3[nH]ccc23)n1` [Compound A24]: 57 nM.
The same measure for `Cc1nn(C2CCN(S(C)(=O)=O)C2)c(C)c1-c1cc(N2CCOC[C@H]2C)nc(-c2ccnc3[nH]ccc23)n1` (stereo partly shown) [Compound A23]: 14 nM; for `Cc1nn(C2CCNCC2)c(C(F)(F)F)c1-c1cc(N2CCOC[C@H]2C)nc(-n2c(CO)nc3cc(F)ccc32)n1` [Compound D32]: 1770 nM; for `Cc1nn(C2CCNCC2)c(C)c1-c1cc(N2CCOC[C@H]2C)nc(-c2ccnc3[nH]ccc23)n1` [Compound A16]: 4 nM.
`Cc1nn(C)c(C)c1-c1nc(-c2ccnc3[nH]ccc23)nc(N2CCOC[C@H]2C)n1` [Compound C1]: it took 41 nM to reach half-maximal inhibition (IC50).
`CSc1nc2cc(F)ccc2n1-c1nc(-c2c(C)nn(C3CCNCC3)c2C(F)(F)F)cc(N2CCOC[C@H]2C)n1` [Compound D31] gave a 50% inhibitory concentration (IC50) of 2700 nM.
The value for `Cc1ccc(S(=O)(=O)C(C)C)cc1-c1cc(N2CCOC[C@H]2C)nc(-c2ccnc3[nH]ccc23)n1` [Compound A39] was 121 nM; that for `Cc1ccc(S(=O)(=O)N(C)CCN(C)C)cc1-c1cc(N2CCOC[C@H]2C)nc(-c2ccnc3[nH]ccc23)n1` [Compound A34] was 282 nM; that for `CNc1nc2ccc(F)cc2n1-c1nc(-c2c(C(F)(F)F)nn(C3CCCNC3)c2C)cc(N2CCOC[C@@H]2C)n1` (stereo partly shown) [Compound D34] was 73 nM.
With `CCN1CCC(n2nc(C)c(-c3cc(N4CCOC[C@H]4C)nc(-c4ccnc5[nH]ccc45)n3)c2C)CC1` [Compound A20], half-maximal inhibition (IC50) required 98 nM.
Molecule `Cc1ccc(S(=O)(=O)NCCCO)cc1-c1cc(N2CCOC[C@H]2C)nc(-c2ccnc3[nH]ccc23)n1` [Compound A40] registered an IC50 of 50 nM.
The value for `COCCn1nc(C)c(-c2cc(N3CCOC[C@H]3C)nc(-c3ccnc4[nH]ccc34)n2)c1C` [Compound A14] was 571 nM.
The value for `Cc1nn(C)c(C)c1-c1nc(-c2ccnc3[nH]ccc23)cc(N2CCOC[C@H]2C)n1` [Compound B1] was 255 nM.
The same measure for `Cc1nn(CC2COC2)c(C)c1-c1cc(N2CCOC[C@H]2C)nc(-c2ccnc3[nH]ccc23)n1` [Compound A19]: 18 nM.

(Values after patent US12544382B2, “2, 4, 6-tri-substituted pyrimidine compound as ATR kinase inhibitor” (BEIJING TIDE PHARMACEUTICAL CO., LTD., priority 2019, dated 2026).)
